Experimental data: patent publication US12144299B2, “Mobilisation of transposable elements to enhance genetic and epigenetic variability in a population” (priority 2015, dated 2024)
Entries after “also recorded” stand apart in the source; their conditions may differ.

Assays:
LINE-1 retrotransposon = experiment: LINE-1 DNA methylation assay in A549 cells; assay type: cell-based, human; conditions: A 0.5 μg/ml, Z 350 μM
Method: (§1) For the A549 human cancer cell line cells were grown in medium without treatment or supplemented with either Z (350 μM) or A (0.5 μg/ml), DNA was extracted by using the QiaAmp DNA mini Kit (Qiagen, France). Next, global DNA methylation was estimated by quantifying the presence of 5-methylcytosine 5-mC DNA ELISA Kit (Zymo Research) according to the manufacturers's instructions. DNA methylation at the LINE-1 transposons were assessed with the Global DNA Methylation Assay—LINE-1 kit (Active Motif).

ONSEN retrotransposon = experiment: ONSEN extrachromosomal DNA accumulation by qPCR in seedlings after heat stress; assay type: in vivo, Arabidopsis thaliana; conditions: HS
Method: After stratification for two days at 4° C., Arabidopsis thaliana plants (accession Col-0) were grown on sterile ½ MS medium with 1% sucrose and a pH of 5.8 (control medium) under long day conditions (16 h light) at 24° C. (day) and 22° C. (night), respectively. Oryza sativa plants were grown on sterile ½ MS medium with 1% sucrose and a pH of 5.8 (control medium) 16 h at 28° C. (day) and 27° C. (night), respectively.
The induction of epigenetic changes and the activation and stable integration of transposable elements in Arabidopsis seedlings was enhanced by germinating and growing them on ½ MS-medium that contained zebularine (final concentration: 10-40 μM), α-amanitin (final concentration: 0.005-20 μg/ml) or a combination of both chemicals (inductive media).
In order to trigger the transposition of the heat-responsive retrotransposon ONSEN, seven days old seedlings were exposed to a cold shock for 24 h at 6° C. followed by a heat-stress for 24 h at 37° C. (heat stress, HS) under controlled conditions in a growth chamber (Sanyo). Control plants were transferred back to longday-conditions 24° C. (day) and 22° C. (night) after the cold treatment at 6° C. for 24 h (CS, control stress, according to Ito et al., 2011).
Total DNA from seedlings and adult plants was isolated using a DNeasy Plant Mini Kit (QIAGEN).
In preparation to the measurement of extrachromosomal DNA copies of ONSEN in CS/HS and untreated/treated seedlings, roots were dissected directly after the heat stress and plants were immediately frozen in liquid nitrogen until DNA extraction.
The copy numbers of ONSEN were determined with qPCRs on total DNA using a TaqMan master mix (Life Technologies) in a final volume of 10 μl in the Light-Cycler 480 (Roche). ACTOPIA17 copy number was measured by quantitative PCR (qPCR) in a Light-Cycler 480 (Roche), using […] Master Mix. Actin2 (At3g18780) served as a standard gene for normalization.

ONSEN LTR = experiment: DNA methylation analysis (DdeI chop PCR, bisulfite sequencing) at the ONSEN LTR; assay type: in vivo, Arabidopsis thaliana
Method: 20 ng of total genomic DNA isolated from Arabidopsis seedlings was digested with the methylation sensitive restriction enzyme, Dde1 (NEB) at 37° C. over night. Following heat inactivation at 60° C. for 20 min, the digested DNA was used as a template for the chopPCR. Actin2 served as a control for the digest. Undigested DNA was used as a loading control. PCR products were separated on a 1% agarose gel and stained with Midori Green.

[1] = tested on: A549 human cancer cell line; experiment: Global DNA methylation (5-mC DNA ELISA) in A549 cells; assay type: cell-based; conditions: A 0.5 μg/ml, Z 350 μM
Method: as §1

CC[C@H](C)[C@@H]1NC(=O)CNC(=O)[C@@H]2Cc3c([nH]c4cc(O)ccc34)[S+]([O-])C[C@@H](NC(=O)CNC1=O)C(=O)N[C@@H](CC(N)=O)C(=O)N1C[C@H](O)C[C@H]1C(=O)N[C@@H]([C@@H](C)[C@@H](O)CO)C(=O)N2 (stereo partly drawn) [A, alpha-amanitin]
reduction of DNA methylation at LINE-1 (LINE-1 retrotransposon): 40% | ONSEN copy number at different α-amanitin concentrations (ONSEN retrotransposon; Col wildtype seedlings, α-amanitin in different concentrations in μg/ml): dose dependent accumulation | ONSEN ecDNA accumulation in dcl2/3/4 triple mutant (ONSEN retrotransposon; dcl2/3/4 triple-mutant grown on A): no effect | ONSEN ecDNA accumulation in rdr6 mutant (ONSEN retrotransposon; rdr6 plants grown on A): still enhancing ecDNA accumulation | ONSEN ecDNA accumulation after heat stress (ONSEN retrotransposon; wild-type seedlings, A 5 μg/ml, Z 40 μM): increase in ONSEN ecDNA | DNA methylation at the ONSEN LTR at higher A concentration (ONSEN LTR; WT (Col) seedlings, A 20 μg/ml, Z 10 μM): reduction in DNA-methylation; also recorded: strongly reduced DNA methylation | CHH methylation at the ONSEN LTR (ONSEN LTR; after CS, A 5 μg/ml, Z 40 μM): reduced CHH methylation levels | reduction of global DNA methylation [1]: 40%

O=c1ncccn1[C@@H]1O[C@H](CO)[C@@H](O)[C@H]1O [Z, zebularine]
reduction of DNA methylation at LINE-1 (LINE-1 retrotransposon): 20%
